Experimental data taken from ChEMBL document CHEMBL1127143, “New -lactam homologs of penems” (1993).
In brackets after ≈: the same amount, converted by molar mass.

Key:
actinomadura species = test: Compound was tested for percent inhibition of D,D - Carboxypeptidase from Actinomadura sp. R39 at 100 uM concentration
Staphylococcus aureus = test: Minimum inhibitory concentration for the antibacterial activity against Staphylococcus aureus; assay type: functional

`CCSC1=C(C(=O)O)N2C(=O)C(NC(=O)Cc3ccccc3)CC2S1` (configuration not stated) was tested, and the inhibition (actinomadura species) was 15% and the MIC (Staphylococcus aureus) was 320 µg/mL (≈ 845 µM).
